Test [1] concerns rabbit ear acne model. Nature of the test: Rabbit ear acne model induced by 2% coal tar. The test is classed as in vivo, New Zealand rabbits. The settings on record: n = 10; for Skin thickness: rabbit ear epidermis; for Hair follicle area / Sebaceous gland diameter: rabbit ear; for Histological grading of acne: number of animals graded − / Histological grading of acne: number of animals graded 1+ / Histological grading of acne: number of animals graded 2+ / Histological grading of acne: number of animals graded 3+: right ear; for Histological grading of acne: number of animals graded −: grade 0: only loose keratinized cells in the infundibulum, without acne; for Histological grading of acne: number of animals graded 1+: grade 1: small amount of dense keratinized material, infundibulum not expanded; for Histological grading of acne: number of animals graded 2+: grade 2: moderately dense keratinized material extending to sebaceous glands, infundibulum expands; for Histological grading of acne: number of animals graded 3+: grade 3: extensive keratinized material, severe expansion of hair follicles. The source says:
The inner side of the right ear of the rabbits was taken as the observation area, the left ear of all rabbits was used as the self-negative control, and 95% alcohol was applied. The inner side of the right ear of the model group and the treatment group were smeared with 2% coal tar (Alfa Aesar China Company, 2% coal tar solution made with 95% alcohol), and evenly applied to the opening of the ear canal on the inner side of the rabbit ear with a sterile cotton swab in a range of about 2 cm×2 cm, once a day, 0.5 mL each time. Then the previous application was wiped with warm water. […] 18 hours after the last coating, the samples were sacrificed, fixed in 10% formaldehyde, embedded in paraffin, and stained with HE for histopathological analysis.
Histological grading standard of the acne model: […], according to histology. Grade 0 means that there are only loose keratinized cells in the infundibulum, without acne forming the “1”; grade 1: the skin on the surface of the rabbit ear is red, or a small amount of dense keratinized material is seen in the infundibulum of the hair follicle, and the infundibulum is not expanded “+”; grade 2: moderately dense keratinized material is seen in the infundibulum of the hair follicle, and it extends to the sebaceous glands, with the proliferation of sebaceous gland ducts, the infundibulum expands by “2+”; grade 3: extensive keratinized material in the hair follicle. Tight keratin embolism in hair follicles causes severe expansion of hair follicles, obvious hyperplasia of sebaceous duct epithelium, skin bulges and scars, and some sebaceous glands degenerate into “3+”.
Histopathological changes were observed under a microscope, and the thickness of 5 different epidermises on a slice was measured with the Biomias99 image analysis system, and the average value was calculated; the area of two hair follicles with the same position and the most complete structure and the diameter of four sebaceous glands were detected, and the average value of each was calculated, and then the data of the left and right external auditory canals of each group were subtracted to obtain the difference in the thickness of the epidermis, the difference in hair follicle area and the diameter of the sebaceous gland in the left and right ears of each rabbit.

The test system of test [2] is androgenetic alopecia (SA) rat model. Nature of the test: Androgenetic alopecia (SA) rat model induced by testosterone propionate. The test is classed as in vivo, Wistar rats. The following applies: for Skin hair follicles and sebaceous glands: number of rats graded ++ / Skin hair follicles and sebaceous glands: number of rats graded ± / Skin hair follicles and sebaceous glands: number of rats graded + / Skin hair follicles and sebaceous glands: number of rats graded − / Skin hair follicles and sebaceous glands: number of rats graded +++: 10 rats, after 60 days; for Skin hair follicles and sebaceous glands: number of rats graded ++: few follicles with cystic degeneration, sebaceous glands mild hyperplasia and hypertrophy; for Skin hair follicles and sebaceous glands: number of rats graded ±: no hyperplasia in the dermis, limited lesions of hair follicles and sebaceous glands, no subcutaneous inflammation; for Skin hair follicles and sebaceous glands: number of rats graded +: no obvious hyperplasia in dermis, obviously cystic follicles, no inflammation; for Skin hair follicles and sebaceous glands: number of rats graded −: normal skin dermal tissue cells, subcutaneous hair follicles and sebaceous glands; for Skin hair follicles and sebaceous glands: number of rats graded +++: segmental hyperplasia, degenerated follicles, hyperplasia of sebaceous glands, mild inflammatory hyperplasia; for 15 d hair length / 30 d hair length / 45 d hair length / 60 d hair length: rats; for 15 d hair length: 15 days after administration; for 30 d hair length: 30 days after administration; for 45 d hair length: 45 days after administration; for 60 d hair length: 60 days after administration. The procedure:
SPF grade Wistar rats were selected and randomly divided into compound group 1 (skin applied with 5% R-IMPP solution), compound group 2 (skin applied with 5% PF 06446846 solution), and compound group 3 (skin applied with 5% SBC-115076 solution), compound group 4 (skin applied with 5% SBC-110736 solution), monoclonal antibody group 1 (subcutaneous injection of PCSK9 monoclonal antibody ab84041, 5 mg/kg·d), monoclonal antibody group 2 (subcutaneous injection of Evolocumab, 5 mg/kg·d), monoclonal antibody group 3 (subcutaneous injection of Alirocumab, 5 mg/kg·d), PCSK9 RNAi inhibitor group-1 (skin applied with 5% PCSK9 small interfering RNA-1 solution), PCSK9 RNAi inhibitor group-2 (skin applied with 5% PCSK9 small interfering RNA-2 solution), PCSK9 RNAi inhibitor group-3 (skin applied with 5% PCSK9 small interfering RNA-3 solution), and polypeptide group (subcutaneous injection of Abcam company ab32727, 3 mg/kg·d), positive control group (skin smeared with 5% minoxidil tincture), negative control group (smeared with 75% ethanol), model control group (smeared with 75% ethanol), 10 rats in each group, half male and half female.
Before the experiment, each rat selected an area of 4 cm×5 cm on the back to remove the hair as the observation area. Except for the negative control group, the rats were subcutaneously injected with testosterone propionate injection [[…]] at the back of the neck, once a day for 60 consecutive days to establish the SA model. […] At the same time, the rats in the corresponding drug group were smeared or subcutaneously injected on the skin of the observation area of the rats in the drug group, smeared 1 ml/(per time), twice a day, with an interval of 8 hours, and administered by subcutaneous injection, once a day. The negative control group and the model control group were smeared with excipient (75% ethanol solution), 1 mL one rat per time, twice a day, for 60 consecutive days.
10 hairs were extracted from the observation area on the back of each rat every 15 days after administration, and the hair length was measured with a vernier caliper. After 60 days of administration, the skin of the experimental observation area was taken for routine tissue dehydration, paraffin embedding, HE staining, and light microscopy to observe the histopathological changes of the rat skin hair follicles and sebaceous glands. Semi-quantitative analysis was carried out in each group. The grading standards are as follows: normal skin dermal tissue cells, subcutaneous hair follicles, and sebaceous glands were marked as “one”; no hyperplasia in the dermis, limited lesions of hair follicles and sebaceous glands, and no subcutaneous inflammation, marked as “±”; no obvious hyperplasia found in the dermis, obviously cystic follicles, no obvious hyperplasia found in the sebaceous glands, and no inflammation is recorded as “+”; segmental hyperplasia of skin and dermis was not obvious, a small number of hair follicles had cystic degeneration, and sebaceous glands had mild hyperplasia and hypertrophy. No obvious inflammation under the skin was recorded as “++”; the skin and dermis tissue cells had segmental hyperplasia of different degrees, some follicles degenerated, the size of the hair follicles was uneven, and there were no cells in the periphery. There was hyperplasia of sebaceous glands, and there were few nuclei in the hyperplasia glands. Individual rats had mild inflammatory hyperplasia under the skin, which was marked as “+++”.

Two molecules from patent US20230346773A1, “USE OF PCSK9 INHIBITOR IN PREPARATION OF PRODUCT FOR TREATING MULTIPLE DISEASES” (priority 2020, published 2023) can be followed below.

Marks after values point to notes of the source that are not given here.

Turning to Inclisran [RNA interference group 2], in test [1], the Skin thickness stood at 0.1856 ± 0.0179 mm, the Hair follicle area is 0.1836 ± 0.0856* mm^2, the Sebaceous gland diameter is 0.0561 ± 0.0423 mm and the “Histological grading of acne: number of animals graded −” value was 6. In test [1], the “Histological grading of acne: number of animals graded 1+” value is 3, the “Histological grading of acne: number of animals graded 2+” value is 1 and the “Histological grading of acne: number of animals graded 3+” value came out at 0. In test [2], the “Skin hair follicles and sebaceous glands: number of rats graded ++” value worked out at 1; the “Skin hair follicles and sebaceous glands: number of rats graded ±” value is reported as 4; the “Skin hair follicles and sebaceous glands: number of rats graded +” value is on record as 4; the “Skin hair follicles and sebaceous glands: number of rats graded −” value was determined as 1. Besides, in test [2], the “Skin hair follicles and sebaceous glands: number of rats graded +++” value was found to be 0; the “15 d hair length” value was 8.3* mm; the “30 d hair length” value is reported as 9.1* mm; the “45 d hair length” value is listed as 14.5* mm. Moreover, in test [2], the “60 d hair length” value is 16.9* mm.

B1: Evolocumab (antibody, chains of the INN, looked up, V domains shown)
VH: EVQLVQSGAEVKKPGASVKVSCKASGYTLTSYGISWVRQAPGQGLEWMGWVSFYNGNTNYAQKLQGRGTMTTDPSTSTAYMELRSLRSDDTAVYYCARGYGMDVWGQGTTVTVSS
VL: ESALTQPASVSGSPGQSITISCTGTSSDVGGYNSVSWYQQHPGKAPKLMIYEVSNRPSGVSNRFSGSKSGNTASLTISGLQAEDEADYYCNSYTSTSMVFGGGTKLTVL
notes: PCSK9 monoclonal antibody jointly developed by Amgen and Astellas, trade name Repatha
On to B1, for which, in test [1], the Skin thickness is on record as 0.1532 ± 0.0156 mm, the Hair follicle area is reported as 0.1533 ± 0.0562* mm^2, the Sebaceous gland diameter was determined as 0.0432 ± 0.0267 mm and the “Histological grading of acne: number of animals graded −” value is 9. Besides, in test [1], the “Histological grading of acne: number of animals graded 1+” value is on record as 1, the “Histological grading of acne: number of animals graded 2+” value was found to be 0 and the “Histological grading of acne: number of animals graded 3+” value was found to be 0. Also, in test [2], the “Skin hair follicles and sebaceous glands: number of rats graded ++” value is 0; the “Skin hair follicles and sebaceous glands: number of rats graded ±” value is given as 4; the “Skin hair follicles and sebaceous glands: number of rats graded +” value is given as 3; the “Skin hair follicles and sebaceous glands: number of rats graded −” value turned out to be 3. Moreover, in test [2], the “Skin hair follicles and sebaceous glands: number of rats graded +++” value is given as 0; the “15 d hair length” value was 9.7* mm; the “30 d hair length” value was 10.8* mm; the “45 d hair length” value is given as 15.8* mm. Moreover, the “60 d hair length” value in test [2] is recorded as 19.5* mm.
